# Reference: patent US20160177395A1, “BIOMARKERS FOR THE PREDICTION OF RENAL INJURY” (priority 2007, published 2016)
# “And” between values parts separate entries of the source, which are not always exact repeats. Identical values can stand only once.
# Test system: kidney tissues of treated or untreated rats
# Assay: Real-time qRT-PCR of signature amplicons, validation stage, labeled and un-labeled samples (Table 23)
# Conditions: for H31883_DB71_seg13 normalized qRT-PCR result / MUSCYCG1R_DB81_seg19-20 normalized qRT-PCR result / W41270_DB81_seg11 normalized qRT-PCR result: labeled sample, one line per animal
# How it was run: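 Each of four signature genes measured as wild-type and alternative-splice amplicons by qRT-PCR in treated or untreated rat kidney. Normalization was two-step: housekeeping-gene factor, then inter-plate correction from shared samples on a shuffled control plate; final values rescaled for display.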
# [1] = day1, female rat kidney, listed as CadCl
# [2] = day1, male rat kidney, listed as CadCl
# [3] = day5, female rat kidney, listed as CadCl
# [4] = day5, male rat kidney, listed as CadCl
# [5] = day28, female rat kidney, listed as CadCl
# [6] = day28, male rat kidney, listed as CadCl
# [7] = labeled samples, day1, kidney of individual male/female rats, listed as CadCl
# [8] = labeled samples, day5, kidney of individual male/female rats, listed as CadCl
# [9] = labeled samples, day28, kidney of individual male/female rats, listed as CadCl
# [10] = day1, female rat kidney, listed as Cis
# [11] = day1, male rat kidney, listed as Cis
# [12] = day28, female rat kidney, listed as Cis
# [13] = day28, male rat kidney, listed as Cis
# [14] = labeled samples, day1, kidney of individual male/female rats, listed as Cis
# [15] = labeled samples, day5, kidney of individual male/female rats, listed as Cis
# [16] = labeled samples, day28, kidney of individual male/female rats, listed as Cis
# [17] = labeled samples, day1, kidney of individual male/female rats
# [18] = labeled samples, day5, kidney of individual male/female rats
# [19] = labeled samples, day28, kidney of individual male/female rats
compound,measurement,setting,value
[Cl][Cd][Cl] [Cadmium chloride],H31883_DB71_seg13 normalized qRT-PCR result,[1],1.194 and 1.772 and 1.894
same,MUSCYCG1R_DB81_seg19-20 normalized qRT-PCR result,[1],1.133 and 1.64 and 1.263
same,W41270_DB81_seg11 normalized qRT-PCR result,[1],1.059 and 1.155 and 1.372
same,H31883_DB71_seg13 normalized qRT-PCR result,[2],1.034 and 1.027 and 0.957
same,MUSCYCG1R_DB81_seg19-20 normalized qRT-PCR result,[2],0.951 and 1.108 and 1.069
same,W41270_DB81_seg11 normalized qRT-PCR result,[2],1.499 and 1.622 and 1.512
same,H31883_DB71_seg13 normalized qRT-PCR result,[3],1.782 and 0.906
same,MUSCYCG1R_DB81_seg19-20 normalized qRT-PCR result,[3],1.866 and 0.805
same,W41270_DB81_seg11 normalized qRT-PCR result,[3],2.282 and 0.854
same,H31883_DB71_seg13 normalized qRT-PCR result,[4],1.104 and 1.157 and 1.671
same,MUSCYCG1R_DB81_seg19-20 normalized qRT-PCR result,[4],1.083 and 1.409 and 2.393
same,W41270_DB81_seg11 normalized qRT-PCR result,[4],1.337 and 1.662 and 1.675
same,H31883_DB71_seg13 normalized qRT-PCR result,[5],0.259 and 0.783 and 1.033
same,MUSCYCG1R_DB81_seg19-20 normalized qRT-PCR result,[5],0.728 and 0.975 and 1.58
same,W41270_DB81_seg11 normalized qRT-PCR result,[5],0.414 and 0.827 and 1.098
same,H31883_DB71_seg13 normalized qRT-PCR result,[6],0.531 and 0.817 and 0.633
same,MUSCYCG1R_DB81_seg19-20 normalized qRT-PCR result,[6],0.672 and 0.836 and 0.333
same,W41270_DB81_seg11 normalized qRT-PCR result,[6],0.781 and 1.107 and 0.807
same,H31883_DB71_seg13 normalized qRT-PCR expression (Cyclin-G1 (CCNG1) transcript),[7],0.919 and 1.005 and 1.446 and 1.239 and 1.632 and 1.143
same,MUSCYCG1R_DB81_seg19-20 normalized qRT-PCR expression,[7],1.224 and 1.097 and 2.129 and 2.276 and 1.856 and 3.981
same,"W41270_DB81_seg11 normalized qRT-PCR expression (tumor necrosis factor receptor superfamily, member 12a transcript)",[7],0.727 and 1.183 and 1.265 and 0.993 and 0.983 and 1
same,H31883_DB71_seg13 normalized qRT-PCR expression (Cyclin-G1 (CCNG1) transcript),[8],1.057 and 1.154 and 0.786 and 1.132 and 1.051
same,MUSCYCG1R_DB81_seg19-20 normalized qRT-PCR expression,[8],1.036 and 2.018 and 1.292 and 3.613 and 2.866
same,"W41270_DB81_seg11 normalized qRT-PCR expression (tumor necrosis factor receptor superfamily, member 12a transcript)",[8],1.067 and 2.101 and 1.109 and 0.769 and 1.211
same,H31883_DB71_seg13 normalized qRT-PCR expression (Cyclin-G1 (CCNG1) transcript),[9],0.785 and 0.652 and 0.712 and 0.681 and 0.849 and 0.578
same,MUSCYCG1R_DB81_seg19-20 normalized qRT-PCR expression,[9],0.769 and 1.356 and 1.068 and 0.68 and 2.128 and 0.932
same,"W41270_DB81_seg11 normalized qRT-PCR expression (tumor necrosis factor receptor superfamily, member 12a transcript)",[9],1.138 and 0.529 and 0.772 and 0.578 and 0.654 and 0.522
N.N.[Cl][Pt][Cl] [Cisplatin],H31883_DB71_seg13 normalized qRT-PCR result,[10],0.844 and 1.209 and 1.345
same,MUSCYCG1R_DB81_seg19-20 normalized qRT-PCR result,[10],0.631 and 0.788 and 0.899
same,W41270_DB81_seg11 normalized qRT-PCR result,[10],0.81 and 1.261 and 1.096
same,H31883_DB71_seg13 normalized qRT-PCR result,[11],0.799 and 1.09 and 0.902
same,MUSCYCG1R_DB81_seg19-20 normalized qRT-PCR result,[11],0.495 and 1.64 and 0.811
same,W41270_DB81_seg11 normalized qRT-PCR result,[11],0.815 and 2.455 and 1.176
same,H31883_DB71_seg13 normalized qRT-PCR result,[12],1.749 and 0.786 and 1.864
same,MUSCYCG1R_DB81_seg19-20 normalized qRT-PCR result,[12],2.301 and 1.555 and 3.336
same,W41270_DB81_seg11 normalized qRT-PCR result,[12],2.504 and 2.643 and 5.783
same,H31883_DB71_seg13 normalized qRT-PCR result,[13],1.587 and 0.786 and 1.371
same,MUSCYCG1R_DB81_seg19-20 normalized qRT-PCR result,[13],4.504 and 1.428 and 1.753
same,W41270_DB81_seg11 normalized qRT-PCR result,[13],5.917 and 3.371 and 3.008
same,H31883_DB71_seg13 normalized qRT-PCR expression (Cyclin-G1 (CCNG1) transcript),[14],0.668 and 0.853 and 1.416 and 2.092 and 2.559 and 1.134
same,MUSCYCG1R_DB81_seg19-20 normalized qRT-PCR expression,[14],0.806 and 1.514 and 1.492 and 3.259 and 2.003 and 1.277
same,"W41270_DB81_seg11 normalized qRT-PCR expression (tumor necrosis factor receptor superfamily, member 12a transcript)",[14],0.679 and 0.759 and 1.331 and 1.029 and 1.224 and 0.496
same,AI045075_DB71_seg6 normalized qRT-PCR expression (Interferon stimulated exonuclease 20 (ISG20) transcript),[15],1.804 and 1.683 and 4.298 and 1.503 and 0.93 and 1.09
same,H31883_DB71_seg13 normalized qRT-PCR expression (Cyclin-G1 (CCNG1) transcript),[15],3.816 and 5.526 and 3.771 and 1.509 and 1.642 and 2.695
same,MUSCYCG1R_DB81_seg19-20 normalized qRT-PCR expression,[15],2.034 and 4.156 and 4.947 and 0.981 and 3.172 and 1.643
same,"W41270_DB81_seg11 normalized qRT-PCR expression (tumor necrosis factor receptor superfamily, member 12a transcript)",[15],1.262 and 3.597 and 1.404 and 0.843 and 2.113 and 0.705
same,W64472_DB81_seg2 normalized qRT-PCR expression (Interferon stimulated exonuclease 20 (ISG20) transcript),[15],1.795 and 3.64 and 6.414 and 1.976 and 1.448 and 1.265
same,W83813_DB81_seg27 normalized qRT-PCR expression,[15],1.716 and 0.857 and 1.461 and 1.366 and 0.758 and 1.265
same,H31883_DB71_seg13 normalized qRT-PCR expression (Cyclin-G1 (CCNG1) transcript),[16],4.41 and 2.839 and 2.398 and 2.653 and 5.592 and 3.563
same,MUSCYCG1R_DB81_seg19-20 normalized qRT-PCR expression,[16],3.509 and 3.443 and 1.813 and 3.094 and 7.02 and 3.473
same,"W41270_DB81_seg11 normalized qRT-PCR expression (tumor necrosis factor receptor superfamily, member 12a transcript)",[16],4.741 and 4.104 and 2.053 and 1.904 and 4.516 and 3.866
Gentamycin,H31883_DB71_seg13 normalized qRT-PCR result,"day1, female rat kidney",0.963 and 0.98 and 0.898
same,MUSCYCG1R_DB81_seg19-20 normalized qRT-PCR result,"day1, female rat kidney",1.251 and 0.889 and 2.053
same,W41270_DB81_seg11 normalized qRT-PCR result,"day1, female rat kidney",0.763 and 0.963 and 1.408
same,H31883_DB71_seg13 normalized qRT-PCR result,"day1, male rat kidney",1.02 and 1.409 and 1.161
same,MUSCYCG1R_DB81_seg19-20 normalized qRT-PCR result,"day1, male rat kidney",1.072 and 1.848 and 1.221
same,W41270_DB81_seg11 normalized qRT-PCR result,"day1, male rat kidney",1.567 and 1.869 and 1.48
same,H31883_DB71_seg13 normalized qRT-PCR result,"day28, female rat kidney",0.421 and 0.441 and 0.434
same,MUSCYCG1R_DB81_seg19-20 normalized qRT-PCR result,"day28, female rat kidney",0.967 and 2.632 and 1.78
same,W41270_DB81_seg11 normalized qRT-PCR result,"day28, female rat kidney",0.806 and 1.079 and 1.164
same,H31883_DB71_seg13 normalized qRT-PCR result,"day28, male rat kidney",0.852 and 0.857 and 0.756
same,MUSCYCG1R_DB81_seg19-20 normalized qRT-PCR result,"day28, male rat kidney",1.734 and 3.06 and 1.469
same,W41270_DB81_seg11 normalized qRT-PCR result,"day28, male rat kidney",1.55 and 1.353 and 1.245
same,H31883_DB71_seg13 normalized qRT-PCR expression (Cyclin-G1 (CCNG1) transcript),[17],0.772 and 1.118 and 0.987 and 1.115 and 0.84 and 1.053
same,MUSCYCG1R_DB81_seg19-20 normalized qRT-PCR expression,[17],0.842 and 1.155 and 1.361 and 2.011 and 1.387 and 2.861
same,"W41270_DB81_seg11 normalized qRT-PCR expression (tumor necrosis factor receptor superfamily, member 12a transcript)",[17],1.361 and 1.037 and 0.904 and 1.08 and 2.078 and 0.85
same,"Label: true label (Normal/Toxic), known renal toxic effect","labeled samples, day5",Toxic
same,AI045075_DB71_seg6 normalized qRT-PCR expression (Interferon stimulated exonuclease 20 (ISG20) transcript),[18],1.337 and 1.374 and 1.402 and 1.778 and 1.636 and 1.256
same,H31883_DB71_seg13 normalized qRT-PCR expression (Cyclin-G1 (CCNG1) transcript),[18],0.948 and 1.09 and 0.78 and 1.142 and 1.402 and 1.515
same,MUSCYCG1R_DB81_seg19-20 normalized qRT-PCR expression,[18],1.085 and 0.993 and 0.955 and 1.442 and 1.842 and 1.644
same,"W41270_DB81_seg11 normalized qRT-PCR expression (tumor necrosis factor receptor superfamily, member 12a transcript)",[18],0.983 and 0.954 and 1.104 and 1.699 and 0.82 and 2.64
same,W64472_DB81_seg2 normalized qRT-PCR expression (Interferon stimulated exonuclease 20 (ISG20) transcript),[18],1.733 and 2.048 and 1.962 and 1.427 and 1.403 and 1.53
same,W83813_DB81_seg27 normalized qRT-PCR expression,[18],1.688 and 1.042 and 0.702 and 1.441 and 1.395 and 0.76
same,H31883_DB71_seg13 normalized qRT-PCR expression (Cyclin-G1 (CCNG1) transcript),[19],0.853 and 0.861 and 0.553 and 0.817 and 0.554 and 0.842
same,MUSCYCG1R_DB81_seg19-20 normalized qRT-PCR expression,[19],0.863 and 1.072 and 0.617 and 0.865 and 0.729 and 1.661
same,"W41270_DB81_seg11 normalized qRT-PCR expression (tumor necrosis factor receptor superfamily, member 12a transcript)",[19],1.614 and 1.342 and 1.315 and 1.194 and 1.188 and 1.941
